Data: US8741836B2, “Polypeptides” (Novo Nordisk A/S, priority 2011, dated 2014)
Starred links: 1 amine or outer side, 2 acyl side, 3 side chain; linkers in the order of their positions; H or OH if unused. Positions of bridges follow the written chain, without caps; N, C: chain ends. Residues, ends and D or L forms follow the SMILES beside them. *: point of attachment. C20 diacid = O=C(O)CCCCCCCCCCCCCCCCCCC(=O)*; γGlu = O=C(O)[C@H](CCC(=O)[*:2])N[*:1]

Test: Assay (III) ThT fibrillation assay for physical stability
Assay type: physicochemical
Conditions: for ThT pH 4.0 lag time: pH 4.0, ThT fibrillation assay
Outline: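 Freshly prepared, pH-adjusted formulations with 1 μM ThT incubated at 37 °C under 960 rpm orbital shaking (1 mm), fluorescence (ex 444, em 485 nm) read every 20 min. […] Peptide content before and after measured by reverse-phase HPLC against pramlintide standard.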

Row | Compound | ThT pH 4.0 lag time (physical stability in fibrillogenesis assay) | ThT pH 4.0 lag time
1 | CC[C@H](C)[C@H](NC(=O)[C@@H]1CCCN1C(=O)CNC(=O)[C@H](Cc1ccccc1)NC(=O)[C@H](CC(N)=O)NC(=O)[C@H](CC(N)=O)NC(=O)[C@H](CO)NC(=O)[C@H](CO)NC(=O)[C@H](Cc1c[nH]cn1)NC(=O)[C@H](Cc1c[nH]cn1)NC(=O)[C@H](CC(C)C)NC(=O)[C@H](Cc1ccccc1)NC(=O)[C@H](CCC(=O)O)NC(=O)[C@H](C)NC(=O)[C@H](CC(C)C)NC(=O)[C@H](CCCNC(=N)N)NC(=O)[C@H](CCC(N)=O)NC(=O)[C@@H](NC(=O)[C@H](C)NC(=O)[C@@H]1CSSC[C@H](NC(=O)[C@H](CCCCN)NC(=O)CC[C@H](NC(=O)CCCCCCCCCCCCCCCCCCC(=O)O)C(=O)O)C(=O)N[C@@H](CC(N)=O)C(=O)N[C@@H]([C@@H](C)O)C(=O)N[C@@H](C)C(=O)N[C@@H]([C@@H](C)O)C(=O)N1)[C@@H](C)O)C(=O)N[C@@H](CC(C)C)C(=O)N1CCC[C@H]1C(=O)N1CCC[C@H]1C(=O)N[C@H](C(=O)N[C@@H](CC(N)=O)C(=O)N[C@H](C(=O)NCC(=O)N[C@@H](CO)C(=O)N[C@@H](CCC(N)=O)C(=O)N[C@H](C(=O)N1CCC[C@H]1C(N)=O)[C@@H](C)O)C(C)C)[C@@H](C)O [Example 135, N-alpha-[(S)-4-Carboxy-4-(19-carboxynonadecanoylamino)butyryl]-[Glu14,His17,Gln35,Pro37]-pramlintide] ({C20 diacid-γGlu}-KCNTATCATQRLAEFLHHSSNNFGPILPPTNVGSQTP-NH2; disulfide 2-7) | >45 h | >45 h
2 | CC[C@H](C)[C@H](NC(=O)[C@@H]1CCCN1C(=O)CNC(=O)[C@H](Cc1ccccc1)NC(=O)[C@H](CC(N)=O)NC(=O)[C@H](CC(N)=O)NC(=O)[C@H](CO)NC(=O)[C@H](CO)NC(=O)[C@H](CCCNC(=N)N)NC(=O)[C@H](Cc1c[nH]cn1)NC(=O)[C@H](CC(C)C)NC(=O)[C@H](Cc1ccccc1)NC(=O)[C@H](CCC(=O)O)NC(=O)[C@H](C)NC(=O)[C@H](CC(C)C)NC(=O)[C@H](CCCNC(=N)N)NC(=O)[C@H](CCC(N)=O)NC(=O)[C@@H](NC(=O)[C@H](C)NC(=O)[C@@H]1CSSC[C@H](NC(=O)[C@H](Cc2c[nH]cn2)NC(=O)CC[C@H](NC(=O)CCCCCCCCCCCCCCCCCCC(=O)O)C(=O)O)C(=O)N[C@@H](CC(N)=O)C(=O)N[C@@H]([C@@H](C)O)C(=O)N[C@@H](C)C(=O)N[C@@H]([C@@H](C)O)C(=O)N1)[C@@H](C)O)C(=O)N[C@@H](CC(C)C)C(=O)N1CCC[C@H]1C(=O)N1CCC[C@H]1C(=O)N[C@H](C(=O)N[C@@H](CC(N)=O)C(=O)N[C@H](C(=O)NCC(=O)N[C@@H](CO)C(=O)N[C@@H](Cc1c[nH]cn1)C(=O)N[C@H](C(=O)N[C@@H](Cc1ccc(O)cc1)C(N)=O)[C@@H](C)O)C(C)C)[C@@H](C)O [Example 77, N-alpha-[(S)-4-Carboxy-4-(19-carboxynonadecanoylamino)butyryl]-[His1,Glu14,His17,Arg18,His35]-pramlintide] ({C20 diacid-γGlu}-HCNTATCATQRLAEFLHRSSNNFGPILPPTNVGSHTY-NH2; disulfide 2-7 (inferred)) | – | >45 h
3 | CC[C@H](C)[C@H](NC(=O)[C@@H]1CCCN1C(=O)CNC(=O)[C@H](Cc1ccccc1)NC(=O)[C@H](CC(N)=O)NC(=O)[C@H](CCC(N)=O)NC(=O)[C@H](CO)NC(=O)[C@H](CO)NC(=O)[C@H](Cc1c[nH]cn1)NC(=O)[C@H](Cc1c[nH]cn1)NC(=O)[C@H](CC(C)C)NC(=O)[C@H](Cc1ccccc1)NC(=O)[C@H](CCC(=O)O)NC(=O)[C@H](C)NC(=O)[C@H](CC(C)C)NC(=O)[C@H](CCCNC(=N)N)NC(=O)[C@H](CCC(N)=O)NC(=O)[C@@H](NC(=O)[C@H](C)NC(=O)[C@@H]1CSSC[C@H](NC(=O)[C@H](CCCCN)NC(=O)CC[C@H](NC(=O)CCCCCCCCCCCCCCCCCCC(=O)O)C(=O)O)C(=O)N[C@@H](CC(N)=O)C(=O)N[C@@H]([C@@H](C)O)C(=O)N[C@@H](C)C(=O)N[C@@H]([C@@H](C)O)C(=O)N1)[C@@H](C)O)C(=O)N[C@@H](CC(C)C)C(=O)N1CCC[C@H]1C(=O)N1CCC[C@H]1C(=O)N[C@H](C(=O)N[C@@H](CC(N)=O)C(=O)N[C@H](C(=O)NCC(=O)N[C@@H](CO)C(=O)N[C@@H](CCC(N)=O)C(=O)N[C@H](C(=O)N1CCC[C@H]1C(N)=O)[C@@H](C)O)C(C)C)[C@@H](C)O [Example 136, N-alpha-[(S)-4-Carboxy-4-(19-carboxynonadecanoylamino)butyryl]-[Glu14,His17,Gln21,Gln35,Pro37]-pramlintide] ({C20 diacid-γGlu}-KCNTATCATQRLAEFLHHSSQNFGPILPPTNVGSQTP-NH2; disulfide 2-7 (inferred)) | >45 h | >45 h
4 | CC[C@H](C)[C@H](NC(=O)[C@@H]1CCCN1C(=O)CNC(=O)[C@H](Cc1ccccc1)NC(=O)[C@H](CC(N)=O)NC(=O)[C@H](CC(N)=O)NC(=O)[C@H](CO)NC(=O)[C@H](CO)NC(=O)[C@H](Cc1c[nH]cn1)NC(=O)[C@H](CCCNC(=N)N)NC(=O)[C@H](CC(C)C)NC(=O)[C@H](Cc1ccccc1)NC(=O)[C@H](CCC(=O)O)NC(=O)[C@H](C)NC(=O)[C@H](CC(C)C)NC(=O)[C@H](CCCNC(=N)N)NC(=O)[C@H](CCC(N)=O)NC(=O)[C@@H](NC(=O)[C@H](C)NC(=O)[C@@H]1CSSC[C@H](NC(=O)[C@H](CCCNC(=N)N)NC(=O)[C@H](CCC(=O)O)NC(=O)CC[C@H](NC(=O)CCCCCCCCCCCCCCCCCCC(=O)O)C(=O)O)C(=O)N[C@@H](CC(N)=O)C(=O)N[C@@H]([C@@H](C)O)C(=O)N[C@@H](C)C(=O)N[C@@H]([C@@H](C)O)C(=O)N1)[C@@H](C)O)C(=O)N[C@@H](CC(C)C)C(=O)N1CCC[C@H]1C(=O)N1CCC[C@H]1C(=O)N[C@H](C(=O)N[C@@H](CC(N)=O)C(=O)N[C@H](C(=O)NCC(=O)N[C@@H](CO)C(=O)N[C@@H](CC(N)=O)C(=O)N[C@H](C(=O)N1CCC[C@H]1C(N)=O)[C@@H](C)O)C(C)C)[C@@H](C)O [compound 156] ({C20 diacid-γGlu}-ERCNTATCATQRLAEFLRHSSNNFGPILPPTNVGSNTP-NH2; disulfide 3-8 (inferred)) | – | >45 h
5 | CC[C@H](C)[C@H](NC(=O)[C@@H]1CCCN1C(=O)CNC(=O)[C@H](Cc1ccccc1)NC(=O)[C@H](CC(N)=O)NC(=O)[C@H](CC(N)=O)NC(=O)[C@H](CO)NC(=O)[C@H](CO)NC(=O)[C@H](Cc1c[nH]cn1)NC(=O)[C@H](CCCNC(=N)N)NC(=O)[C@H](CC(C)C)NC(=O)[C@H](Cc1ccccc1)NC(=O)[C@H](CCC(=O)O)NC(=O)[C@H](C)NC(=O)[C@H](CC(C)C)NC(=O)[C@H](CCCNC(=N)N)NC(=O)[C@H](CCC(N)=O)NC(=O)[C@@H](NC(=O)[C@H](C)NC(=O)[C@@H]1CSSC[C@H](NC(=O)[C@H](CCC(=O)O)NC(=O)[C@H](CCCNC(=N)N)NC(=O)[C@H](CCC(=O)O)NC(=O)CC[C@H](NC(=O)CCCCCCCCCCCCCCCCCCC(=O)O)C(=O)O)C(=O)N[C@@H](CC(N)=O)C(=O)N[C@@H]([C@@H](C)O)C(=O)N[C@@H](C)C(=O)N[C@@H]([C@@H](C)O)C(=O)N1)[C@@H](C)O)C(=O)N[C@@H](CC(C)C)C(=O)N1CCC[C@H]1C(=O)N1CCC[C@H]1C(=O)N[C@H](C(=O)N[C@@H](CC(N)=O)C(=O)N[C@H](C(=O)NCC(=O)N[C@@H](CO)C(=O)N[C@@H](CC(N)=O)C(=O)N[C@H](C(=O)N1CCC[C@H]1C(N)=O)[C@@H](C)O)C(C)C)[C@@H](C)O [Example 124, N-alpha-[(S)-4-Carboxy-4-(19-carboxynonadecanoylamino)butyryl]-Glu-Arg-[Glu1,Glu14,Arg17,Pro37]-pramlintide] ({C20 diacid-γGlu}-ERECNTATCATQRLAEFLRHSSNNFGPILPPTNVGSNTP-NH2; disulfide 4-9 (inferred); C-terminus assumed) | >45 h | >45 h
6 | CC[C@H](C)[C@H](NC(=O)[C@@H]1CCCN1C(=O)CNC(=O)[C@H](Cc1ccccc1)NC(=O)[C@H](CC(N)=O)NC(=O)[C@H](CC(N)=O)NC(=O)[C@H](CO)NC(=O)[C@H](CO)NC(=O)[C@H](Cc1c[nH]cn1)NC(=O)[C@H](Cc1c[nH]cn1)NC(=O)[C@H](CC(C)C)NC(=O)[C@H](Cc1ccccc1)NC(=O)[C@H](CCC(=O)O)NC(=O)[C@H](C)NC(=O)[C@H](CC(C)C)NC(=O)[C@H](CCCNC(=N)N)NC(=O)[C@H](CCC(N)=O)NC(=O)[C@@H](NC(=O)[C@H](C)NC(=O)[C@@H]1CSSC[C@H](NC(=O)[C@H](CCCCN)NC(=O)CC[C@H](NC(=O)CCCCCCCCCCCCCCCCCCC(=O)O)C(=O)O)C(=O)N[C@@H](CC(N)=O)C(=O)N[C@@H]([C@@H](C)O)C(=O)N[C@@H](C)C(=O)N[C@@H]([C@@H](C)O)C(=O)N1)[C@@H](C)O)C(=O)N[C@@H](CC(C)C)C(=O)N1CCC[C@H]1C(=O)N1CCC[C@H]1C(=O)N[C@H](C(=O)N[C@@H](CC(N)=O)C(=O)N[C@H](C(=O)NCC(=O)N[C@@H](CO)C(=O)N[C@@H](CCCNC(=N)N)C(=O)N[C@H](C(=O)N[C@@H](Cc1ccc(O)cc1)C(N)=O)[C@@H](C)O)C(C)C)[C@@H](C)O [Example 112, N-alpha-[(S)-4-Carboxy-4-(19-carboxynonadecanoylamino)butyryl]-[Glu14,His17,Arg35]-pramlintide] ({C20 diacid-γGlu}-KCNTATCATQRLAEFLHHSSNNFGPILPPTNVGSRTY-NH2; disulfide 2-7 (inferred)) | – | >45 h
